Test results reported in the NIST ThermoML archive (doi:10.1021/je301344y).

Details: Fluid (supercritical or subcritical phases), Pulse-echo method

C=CC [propene]
Details	speed of sound [m/s]
240 K, 7107.3 kPa	1153.2
240 K, 8108.1 kPa	1161.6
240 K, 9108.7 kPa	1169.9
240 K, 10109 kPa	1178
240 K, 12611 kPa	1197.8
240 K, 15113 kPa	1216.8
240 K, 17614 kPa	1235.1
240 K, 20116 kPa	1252.7
240 K, 25119 kPa	1286.5
240 K, 30122 kPa	1318.2
240 K, 35126 kPa	1348.3
240 K, 40129 kPa	1377
240 K, 45132 kPa	1404.3
240 K, 50136 kPa	1430.5
240 K, 60144 kPa	1479.9
240.01 K, 1303 kPa	1101.2
240.01 K, 2103.6 kPa	1108.7
240.01 K, 3104.3 kPa	1118
240.01 K, 4105 kPa	1127.1
240.01 K, 5105.7 kPa	1135.9
240.01 K, 6106.4 kPa	1144.7
260 K, 1303.3 kPa	970.62
260 K, 2103.9 kPa	979.88
260 K, 3104.6 kPa	991.17
260 K, 4105.3 kPa	1002.2
260 K, 5106.1 kPa	1012.9
260 K, 6106.6 kPa	1023.3
260 K, 7107.2 kPa	1033.5
260 K, 8107.8 kPa	1043.4
260 K, 9108.2 kPa	1053.1
260 K, 10109 kPa	1062.6
260 K, 12613 kPa	1085.6
260 K, 15114 kPa	1107.5
260 K, 17616 kPa	1128.4
260 K, 20118 kPa	1148.4
260 K, 25121 kPa	1186.3
260 K, 30124 kPa	1221.6
260 K, 35128 kPa	1254.8
260 K, 40131 kPa	1286.2
260 K, 45134 kPa	1316
260 K, 50138 kPa	1344.4
260 K, 60145 kPa	1397.5
260 K, 70152 kPa	1446.7
260 K, 80158 kPa	1492.6
260 K, 90165 kPa	1535.6
260 K, 100172 kPa	1576.3
280 K, 1301.6 kPa	836.39
280 K, 2102.4 kPa	848.18
280 K, 3103.2 kPa	862.38
280 K, 4104 kPa	876.04
280 K, 5104.9 kPa	889.2
280 K, 6105.8 kPa	901.91
280 K, 7107.3 kPa	914.23
280 K, 8108.1 kPa	926.15
280 K, 9108.8 kPa	937.72
280 K, 10110 kPa	948.97
280 K, 12611 kPa	975.84
280 K, 15113 kPa	1001.1
280 K, 17613 kPa	1025
280 K, 20117 kPa	1047.8
280 K, 25118 kPa	1090.3
280 K, 30122 kPa	1129.5
280 K, 35126 kPa	1166
280 K, 40129 kPa	1200.2
280 K, 45133 kPa	1232.4
280 K, 50138 kPa	1263.1
280 K, 60144 kPa	1320
280 K, 70151 kPa	1372.2
280 K, 80157 kPa	1420.7
280 K, 90164 kPa	1466.1
280 K, 100171 kPa	1508.7
299.99 K, 1403.2 kPa	696.05
299.99 K, 2103.7 kPa	710.03
299.99 K, 4105.1 kPa	746.66
299.99 K, 8107.8 kPa	809.26
299.99 K, 15113 kPa	898.02
299.99 K, 20116 kPa	951.33
299.99 K, 25119 kPa	998.93
299.99 K, 25120 kPa	998.96
299.99 K, 30123 kPa	1042.3
299.99 K, 35126 kPa	1082.1
299.99 K, 40130 kPa	1119.3
299.99 K, 50137 kPa	1186.8
299.99 K, 60144 kPa	1247.4
299.99 K, 70151 kPa	1302.7
299.99 K, 80156 kPa	1353.6
299.99 K, 80158 kPa	1353.7
299.99 K, 90164 kPa	1401.1
299.99 K, 100172 kPa	1445.6
300 K, 1402.2 kPa	696.01
300 K, 1402.5 kPa	696
300 K, 1402.7 kPa	696.01
300 K, 2102.7 kPa	709.98
300 K, 2104.1 kPa	710.04
300 K, 3103.2 kPa	728.84
300 K, 3104.7 kPa	728.9
300 K, 3105.1 kPa	728.91
300 K, 4103.8 kPa	746.6
300 K, 4105.8 kPa	746.67
300 K, 5104.2 kPa	763.4
300 K, 6104.7 kPa	779.36
300 K, 6106.5 kPa	779.42
300 K, 7107.2 kPa	794.65
300 K, 8106 kPa	809.21
300 K, 8107.2 kPa	809.25
300 K, 9106.7 kPa	823.24
300 K, 10107 kPa	836.75
300 K, 10109 kPa	836.79
300 K, 12611 kPa	868.58
300 K, 15113 kPa	898
300 K, 17613 kPa	925.47
300 K, 20114 kPa	951.3
300 K, 25118 kPa	998.93
300 K, 30121 kPa	1042.3
300 K, 35124 kPa	1082.1
300 K, 40128 kPa	1119.2
300 K, 45131 kPa	1154
300 K, 50135 kPa	1186.8
300 K, 60142 kPa	1247.4
300 K, 70149 kPa	1302.6
300 K, 90163 kPa	1401.1
300 K, 100170 kPa	1445.6
319.99 K, 22616 kPa	886.71
319.99 K, 100172 kPa	1386.9
320 K, 2104.4 kPa	556.2
320 K, 3105.2 kPa	584.43
320 K, 4105.8 kPa	609.63
